Where a SMILES comes first, the peptide text is derived from it.

In series [1] the test system is COVID-19-associated severe ARDS. The conditions noted are these: data of the 3 patients of example 2.
From the text: Example 2: Critically ill patients suffering from a COVID-19 infection in a second university care centre.
To this date, we treated three patients in individualized therapeutic attempts with FX06 in the second university care center.
All three patients were diagnosed with SARS-CoV-2 pneumonia resulting in severe acute respiratory distress syndrome (ARDS) and required extracorporeal membrane oxygenation (ECMO) therapy upon or early during their treatment in our facility. All patients were referred to our hospital from basic care providers due to the severity of their conditions. All patients required ECMO therapy at the time of FX06 treatment.
FX06 400 mg was administered once per day after informed consent by the close relative.
The conditions of series [2]: human, in vivo; cited from earlier work.

On to `CC[C@H](C)[C@H](NC(=O)[C@@H]1CCCN1C(=O)[C@@H]1CCCN1C(=O)[C@@H]1CCCN1C(=O)[C@H](C)NC(=O)[C@@H]1CCCN1C(=O)[C@H](CCCNC(=N)N)NC(=O)[C@H](CC(C)C)NC(=O)[C@H](CO)NC(=O)[C@@H]1CCCN1C(=O)[C@H](C)NC(=O)[C@H](CCC(=O)O)NC(=O)[C@H](CCC(=O)O)NC(=O)[C@H](CCCNC(=N)N)NC(=O)[C@H](CCCCN)NC(=O)[C@H](CCCCN)NC(=O)[C@H](CC(=O)O)NC(=O)[C@H](CC(C)C)NC(=O)[C@@H]1CCCN1C(=O)[C@H](CCCNC(=N)N)NC(=O)[C@H](Cc1c[nH]cn1)NC(=O)CN)C(=O)N[C@@H](CO)C(=O)NCC(=O)NCC(=O)NCC(=O)N[C@@H](Cc1ccc(O)cc1)C(=O)N[C@@H](CCCNC(=N)N)C(=O)O` [FX06] (H-GHRPLDKKREEAPSLRPAPPPISGGGYR-OH), for which the “safety in severe ARDS” value in series [1] is given as “safe to use”. Besides, the “tolerability / safety profile in clinical trials” value in series [2] is recorded as “well tolerated with a benign safety profile”.
